Assay results from patent publication US20040248992A1, “Method and composition for inhibiting arteriosclerosis” (KANEKA CORPORATION, priority 2000, published 2004).

Legend:
[1] = tested on: plasma low-density lipoprotein (LDL); assay: Antioxidant activity of plasma LDL (lag time of copper-induced conjugated diene formation) in hamsters on high-fat diet; assay type: in vivo; details: 1% (w/v) solution in olive oil plus pravastatin 10 mg/kg orally for 4 consecutive days, LDL 40 μg protein/mL, copper ion 1 μM, 234 nm, n = 3
Protocol: Hamsters were fed on a high-fat diet containing 1.5% of cholesterol for 1 week and, then, dosed orally with a 1% (w/v) solution of either the oxidized or the reduced coenzyme Q10 in olive oil and 10 mg of pravastatin per kg body weight for 4 consecutive days. After overnight fasting, the plasma was collected, the plasma LDL was separated by density-gradient centrifugation method, and as a marker of LDL antioxidant activity, the lag time was measured. The lag time is defined herein as the value found by adding a copper ion (1 μM) to LDL (40 μg protein/mL) and monitoring at 234 nm the time course of conjugated diene structure of oxidized fat/fatty acid resulting from oxidation to determine the time interval until a sharp increase had begun in the conjugated diene concentration.

[2] = Plasma level of the reduced coenzyme Q10 in hamsters on high-fat diet (HPLC); assay type: in vivo
Protocol: Hamsters were fed on a high-fat diet containing 1.5% of cholesterol for one week and, then, a 1% (w/v) solution of either the oxidized or the reduced coenzyme Q10 in olive oil was administered orally for 4 consecutive days. After overnight fasting, the plasma was collected and the reduced coenzyme Q10 in the plasma was assayed by HPLC.

Structure (SMILES)	Lag time (LDL antioxidant activity) [1] [min]	Gain in reduced coenzyme Q10 in plasma ([2]; hamster, in vivo, po, 4 days) [ng/mL]	Gain in reduced coenzyme Q10 in plasma, relative to oxidized coenzyme Q10 group (100%) ([2]; hamster, in vivo, po, 4 days) [%]	Gain in reduced coenzyme Q10 in plasma ([2]; hamsters on high-fat diet (1.5% cholesterol, 1 week), 1% (w/v) solution in olive oil orally for 4 consecutive days, plasma after overnight fasting, n = 3) [ng/mL]	Gain in reduced coenzyme Q10 in plasma, relative to oxidized coenzyme Q10 group (100%) ([2]; hamsters on high-fat diet, 1% (w/v) solution in olive oil orally for 4 consecutive days, n = 3) [%]
COC1=C(OC)C(=O)C(C/C=C(\C)CC/C=C(\C)CC/C=C(\C)CC/C=C(\C)CC/C=C(\C)CC/C=C(\C)CC/C=C(\C)CC/C=C(\C)CC/C=C(\C)CCC=C(C)C)=C(C)C1=O [oxidized coenzyme Q10]	25 ± 8	10.1	100	–	–
COc1c(O)c(C)c(C/C=C(\C)CC/C=C(\C)CC/C=C(\C)CC/C=C(\C)CC/C=C(\C)CC/C=C(\C)CC/C=C(\C)CC/C=C(\C)CC/C=C(\C)CCC=C(C)C)c(O)c1OC [reduced coenzyme Q10]	44 ± 9	–	–	14.4	143
